Data reported in ChEMBL document CHEMBL4387714, “Four N-(E)-cinnamoyl (cinnamamide) derivatives of aminoalkanols with promising anticonvulsant and analgesic activity” (Bioorg Med Chem Lett, 2019).
Activity calls are given as the source filed them. The calls are words filed in the database; no cut-off is given here.

Assays:
Mus musculus [1] = experiment: Anticonvulsant activity in albino CF1 mouse model of metrazol-induced seizures assessed as time to twitch at 56 mg/kg, ip administered 0.5 hrs prior to MTZ challenge (reference value: 26.5 +/- 1.0 s); format: functional
Mus musculus [2] = experiment: Anticonvulsant activity in 60-Hz corneal stimulation-induced full kindling albino CF1 mouse model of epilepsy assessed as reduction in seizure score at 70 mg/kg, ip administered 0.25 hrs prior to 60-Hz corneal stimulation; format: functional, organism-based
Mus musculus [3] = experiment: Anticonvulsant activity in ip dosed 60-Hz corneal stimulation-induced full kindling albino CF1 mouse model of epilepsy assessed as reduction in seizure score treated 0.25 hrs prior to 60-Hz corneal stimulation; format: functional
Mus musculus [4] = experiment: Anticonvulsant activity in albino CF1 mouse assessed as time to clonus at 180 mg/kg, ip administered 0.5 hrs prior to MTZ challenge (reference value: 29.3 +/- 1.2 s); format: functional
Mus musculus [5] = experiment: Anticonvulsant activity in albino CF1 mouse assessed as metrazol dose causing first clonus at 180 mg/kg, ip administered 0.5 hrs prior to MTZ challenge (reference value: 28.4 +/- 1.1 mg/kg); format: functional
[6] = Toxicity in albino CF1 mouse assessed as body weight at 180 mg/kg, ip measured at 0.5 hrs (reference value: 29.3 +/- 0.3 g); format: organism-based; details: in vivo
Mus musculus [7] = experiment: Anticonvulsant activity in albino CF1 mouse assessed as time to clonus at 56 mg/kg, ip administered 0.5 hrs prior to MTZ challenge (reference value: 29.3 +/- 1.2 s); format: functional
Mus musculus [8] = experiment: Anticonvulsant activity in albino CF1 mouse model of metrazol-induced seizures assessed as metrazol dose causing first twitch at 180 mg/kg, ip administered 0.5 hrs prior to MTZ challenge (reference value: 25.6 +/- 0.9 mg/kg); format: functional
Mus musculus [9] = experiment: Anticonvulsant activity in albino CF1 mouse model of metrazol-induced seizures assessed as metrazol dose causing first twitch at 56 mg/kg, ip administered 0.5 hrs prior to MTZ challenge (reference value: 25.6 +/- 0.9 mg/kg); format: functional
[10] = Toxicity in albino CF1 mouse assessed as body weight at 56 mg/kg, ip measured at 0.5 hrs (reference value: 29.3 +/- 0.3 g); format: organism-based; details: in vivo
Mus musculus [11] = experiment: Anticonvulsant activity in 60-Hz corneal stimulation-induced full kindling albino CF1 mouse model of epilepsy assessed as reduction in seizure score at 25 mg/kg, ip administered 0.25 hrs prior to 60-Hz corneal stimulation; format: functional, organism-based
Mus musculus [12] = experiment: Anticonvulsant activity in albino CF1 mouse assessed as metrazol dose causing first clonus at 56 mg/kg, ip administered 0.5 hrs prior to MTZ challenge (reference value: 28.4 +/- 1.1 mg/kg); format: functional
Mus musculus [13] = experiment: Anticonvulsant activity in 60-Hz corneal stimulation-induced full kindling albino CF1 mouse model of epilepsy assessed as reduction in seizure score at 42 mg/kg, ip administered 0.25 hrs prior to 60-Hz corneal stimulation; format: functional, organism-based
Mus musculus [14] = experiment: Anticonvulsant activity in albino CF1 mouse model of metrazol-induced seizures assessed as time to twitch at 180 mg/kg, ip administered 0.5 hrs prior to MTZ challenge (reference value: 26.5 +/- 1.0 s); format: functional
Mus musculus [15] = experiment: Anticonvulsant activity in 60-Hz corneal stimulation-induced full kindling albino CF1 mouse model of epilepsy assessed as reduction in seizure score at 15 mg/kg, ip administered 0.25 hrs prior to 60-Hz corneal stimulation; format: functional, organism-based
Mus musculus [16] = experiment: Anticonvulsant activity in albino CF1 mouse assessed as time to clonus at 196 mg/kg, ip administered 0.25 hrs prior to MTZ challenge (reference value: 29 +/- 1.6 s); format: functional
Mus musculus [17] = experiment: Anticonvulsant activity in albino CF1 mouse model of metrazol-induced seizures assessed as time to twitch at 54 mg/kg, ip administered 0.25 hrs prior to MTZ challenge (reference value: 25.9 +/- 1.3 s); format: functional
Mus musculus [18] = experiment: Anticonvulsant activity in albino CF1 mouse model of metrazol-induced seizures assessed as metrazol dose causing first twitch at 54 mg/kg, ip administered 0.25 hrs prior to MTZ challenge (reference value: 27.6 +/- 1.3 mg/kg); format: functional
Mus musculus [19] = experiment: Anticonvulsant activity in albino CF1 mouse assessed as time to clonus at 54 mg/kg, ip administered 0.25 hrs prior to MTZ challenge (reference value: 29 +/- 1.6 s); format: functional
Brain [20] = experiment: (§1) In vitro anticonvulsant activity in kainic acid-induced albino Sprague Dawley rat brain assessed as blockade of ACSF-stimulated spontaneous electrographic seizure-like activity in medial entorhinal cortex hippocampal brain slices by measuring burst duration at 100 uM measured after 20 mins relative to control; format: functional
Mus musculus [21] = experiment: Anticonvulsant activity in albino CF1 mouse assessed as metrazol dose causing first clonus at 196 mg/kg, ip administered 0.25 hrs prior to MTZ challenge (reference value: 30.9 +/- 1.6 mg/kg); format: functional
Mus musculus [22] = experiment: Neuroprotective activity against controlled cortical impact-induced C57Bl/6 acute mouse model of traumatic brain injury assessed as lesion volume at 54 mg/kg, ip administered twice daily for 3 days starting from 0.5 hrs post controlled cortical impact challenge measured post-last dose by naurotrace 435/455 staining-based fluorescent microscopy (reference value: 11.9 +/- 0.7 mm3); format: functional
[23] = Toxicity in albino CF1 mouse assessed as body weight at 196 mg/kg, ip measured at 0.25 hrs (reference value: 26.5 +/- 0.3 g); format: organism-based; details: in vivo
Mus musculus [24] = experiment: Anticonvulsant activity in albino CF1 mouse model of metrazol-induced seizures assessed as metrazol dose causing first twitch at 196 mg/kg, ip administered 0.25 hrs prior to MTZ challenge (reference value: 27.6 +/- 1.3 mg/kg); format: functional
Mus musculus [25] = experiment: Anticonvulsant activity in albino CF1 mouse assessed as metrazol dose causing first clonus at 54 mg/kg, ip administered 0.25 hrs prior to MTZ challenge (reference value: 30.9 +/- 1.6 mg/kg); format: functional
[26] = Toxicity in albino CF1 mouse assessed as body weight at 54 mg/kg, ip measured at 0.25 hrs (reference value: 26.5 +/- 0.3 g); format: organism-based; details: in vivo
Mus musculus [27] = experiment: Anticonvulsant activity in 60-Hz corneal stimulation-induced full kindling albino CF1 mouse model of epilepsy assessed as reduction in seizure score at 94 mg/kg, ip administered 0.25 hrs prior to 60-Hz corneal stimulation; format: functional, organism-based
Brain [28] = experiment: as §1, with “rate” for “duration”; format: functional
Mus musculus [29] = experiment: Anticonvulsant activity in albino CF1 mouse model of metrazol-induced seizures assessed as time to twitch at 196 mg/kg, ip administered 0.25 hrs prior to MTZ challenge (reference value: 25.9 +/- 1.3 s); format: functional

With `CC(O)CNC(=O)/C=C/c1ccc(Cl)cc1` (racemic) the Time (Mus musculus [1]) was 45.1 s, the Activity (Mus musculus [2]) was “Active” and the ED50 (Mus musculus [3]) was 51.1 mg/kg. For the same compound, the Time (Mus musculus [4]) was 106.1 s, the Activity (Mus musculus [5]) was 105.4 mg/kg and the Activity [6] was 28.6 g. For the same compound, the Time (Mus musculus [7]) was 65.6 s, the Activity (Mus musculus [8]) was 60.3 mg/kg and the Activity (Mus musculus [9]) was 45 mg/kg. For the same compound, the Activity [10] was 28.4 g, the Activity (Mus musculus [11]) was “inactive” and the Activity (Mus musculus [12]) was 65.4 mg/kg. For the same compound, the Activity (Mus musculus [13]) was “inactive”, the Time (Mus musculus [14]) was 60.8 s and the Activity (Mus musculus [15]) was “inactive”.

`CCC(CO)NC(=O)/C=C/c1ccc(Cl)cc1` (racemic) gave a Time (Mus musculus [16]) of 90.2 s, a Time (Mus musculus [17]) of 33.9 s and an Activity (Mus musculus [18]) of 36.2 mg/kg. It also gave an ED50 (Mus musculus [3]) of 25.7 mg/kg, a Time (Mus musculus [19]) of 42.1 s and an Activity (Brain [20]) of 90%. For the same compound, the Activity (Mus musculus [21]) was 98.6 mg/kg, the Activity (Mus musculus [22]) was 11.44 mm3 and the Activity [23] was 26 g. It also gave an Activity (Mus musculus [24]) of 68.7 mg/kg, an Activity (Mus musculus [25]) of 44.9 mg/kg and an Activity [26] of 26.5 g. The Activity (Mus musculus [27]) was “Active”, the Activity (Brain [28]) was 87% and the Time (Mus musculus [29]) was 63 s.
